For this assay, the system named is Eschericia coli strain ATCC25922. Description: standard microdilution assay to determine minimum inhibitory concentrations (MICs). The class given is cell-based. The note with it: Escherichia coli, read-out: E. coli ATCC25922 MIC. In outline: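 Broth microdilution per CLSI protocols, typically 100 µL final volume, against E. coli ATCC25922. MIC values scored as +/− against a cutoff of 16 micrograms/ml.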
(In broth dilution the organism is exposed to a series of concentrations in liquid medium.)

This passage reports MIC results from patent US9023843B2, “Antimicrobial compounds and methods of making and using the same” (Melinta Therapeutics, Inc., priority 2009, dated 2015).

Take `O=c1nc2c(cn1C1CCC(NCCCc3cnn[nH]3)CC1)Oc1ccc(C3CCNCC3)cc1N2` (stereo not shown) [Compound 1212]: the MIC (commonly the lowest concentration found to suppress growth) is > 16 µg/mL.

As for `O=C1OCCN1CCCNC1CCC(n2cc3c(nc2=O)Nc2cc(C4CCNCC4)ccc2O3)CC1` (stereo not shown) [Compound 1213], the MIC is > 16 µg/mL.

`O=c1nc2c(cn1C1CCC(NCCCN3CCCCC3)CC1)Oc1ccc(C3CCNCC3)cc1N2` (stereo not shown) [Compound 1234]: the MIC is < 16 µg/mL.

Consider `NCCCNC(=O)C1CCC(n2cc3c(nc2=O)Nc2cc(C4CCNCC4)ccc2O3)CC1` (stereo not shown) [Compound 1235], for which the minimal inhibitory concentration (MIC) is < 16 µg/mL.

On to `N=C(N)NCCCNC(=O)C1CCC(n2cc3c(nc2=O)Nc2cc(C4CCNCC4)ccc2O3)CC1` (stereo not shown) [Compound 1236], for which the MIC was < 16 µg/mL.

On to `N=C(N)NCCNC(=O)C1CCC(n2cc3c(nc2=O)Nc2cc(C4CCNCC4)ccc2O3)CC1` (stereo not shown) [Compound 1237], for which the MIC is < 16 µg/mL.

For the compound `NCCNC(=O)C1CCC(n2cc3c(nc2=O)Nc2cc(C4CCNCC4)ccc2O3)CC1` (stereo not shown) [Compound 1238], the MIC was < 16 µg/mL.

For `NCCCN(CCCN)C1CCC(n2cc3c(nc2=O)Nc2cc(C4CCNCC4)ccc2O3)CC1` (stereo not shown) [Compound 1244], the MIC is < 16 µg/mL.

On to `NCCCNCC1CCC(n2cc3c(nc2=O)Nc2cc(C4CCNCC4)ccc2O3)CC1` (stereo not shown) [Compound 1269], for which the MIC is < 16 µg/mL.

Take `NC1CCC(Cn2cc3c(nc2=O)Nc2cc(C4CCNCC4)ccc2O3)CC1` (stereo not shown) [Compound 1368]: the MIC was > 16 µg/mL.

Consider `NCC1CCC(n2cc3c(nc2=O)Nc2cc(C4CCNCC4)ccc2O3)CC1` (stereo not shown) [Compound 1369], for which the MIC is > 16 µg/mL.

Turning to `NCCCN(CCCN)CC1CCC(n2cc3c(nc2=O)Nc2cc(C4CCNCC4)ccc2O3)CC1` (stereo not shown) [Compound 1370], the MIC was < 16 µg/mL.

Consider `CN(C)CCCOc1cccc2c1Nc1nc(=O)n(C3CCC(CN)CC3)cc1O2` (stereo not shown) [Compound 1421], for which the MIC is > 16 µg/mL.

Take `CC(=O)NCCOc1cccc2c1Nc1nc(=O)n(C3CCC(CN)CC3)cc1O2` (stereo not shown) [Compound 1426]: the MIC is > 16 µg/mL.

For `NCCOc1cccc2c1Nc1nc(=O)n([C@H]3CC[C@H](CN)CC3)cc1O2` [Compound 1427], the MIC is > 16 µg/mL.

Regarding `NC[C@H]1CC[C@H](n2cc3c(nc2=O)Nc2c(OCCCN4CCNCC4)cccc2O3)CC1` [Compound 1441], the MIC is > 16 µg/mL.

Take `NCCCOc1cccc2c1Nc1nc(=O)n([C@H]3CC[C@H](CN)CC3)cc1O2` [Compound 1449]: the MIC is > 16 µg/mL.

With `NC[C@H]1CC[C@H](n2cc3c(nc2=O)Nc2c(OCCCCl)cccc2O3)CC1` [Compound 1450], the MIC was > 16 µg/mL.

Regarding `NC[C@H]1CC[C@H](n2cc3c(nc2=O)Nc2c(OCc4ccccc4)cccc2O3)CC1` [Compound 1467], the MIC was > 16 µg/mL.

With `COc1cccc2c1Nc1nc(=O)n([C@H]3CC[C@H](CN)CC3)cc1O2` [Compound 4000c], the MIC was > 16 µg/mL.

For the compound `NC[C@H]1CC[C@H](n2cc3c(nc2=O)Nc2c(OCCNC(N)=O)cccc2O3)CC1` [Compound 4001c], the MIC is > 16 µg/mL.

As to `NC[C@H]1CC[C@H](n2cc3c(nc2=O)Nc2c(OCCNC(=O)NCc4ccccc4)cccc2O3)CC1` [Compound 4002c], the MIC is > 16 µg/mL.

Regarding `NC[C@H]1CC[C@H](n2cc3c(nc2=O)Nc2c(OCCCOCc4ccccc4)cccc2O3)CC1` [Compound 4003c], the MIC was > 16 µg/mL.

Take `N=C(N)NCCCN[C@H]1CC[C@H](n2cc3c(nc2=O)Nc2c(OCCN)cccc2O3)CC1` [Compound 4004c]: the MIC was < 16 µg/mL.

For `NCCOc1cccc2c1Nc1nc(=O)n([C@H]3CC[C@H](N)CC3)cc1O2` [Compound 4005c], the MIC was > 16 µg/mL.

Regarding `N=C(N)NCCCNC(=O)[C@H]1CC[C@H](n2cc3c(nc2=O)Nc2c(OCCN)cccc2O3)CC1` [Compound 4006c], the MIC was < 16 µg/mL.

As to `NCCCNC(=O)[C@H]1CC[C@H](n2cc3c(nc2=O)Nc2c(OCCN)cccc2O3)CC1` [Compound 4007c], the MIC is > 16 µg/mL.

As to `N=C(N)NCCCNC(=O)[C@H]1CC[C@H](n2cc3c(nc2=O)Nc2c(CCCN)cccc2O3)CC1` [Compound 4008c], the MIC was > 16 µg/mL.
